“And” between values parts separate entries of the source, which are not always exact repeats. Equal values may be shown once. Inconclusive results and toxic doses are left out.
Tested on: BDF1 mice, L1210/MTX-resistant leukemia ip, survival T/C
Assay: NCI In Vivo Anticancer Drug Screen. Data for tumor model L1210 Leukemia resistant to Methotrexate; NSC 740 (intraperitoneal) in B6D2F1 (BDF1) mice
Conditions: endpoint: mean survival time, higher = longer survival
Method: The antitumor activity of compounds was measured in mice bearing transplantable tumors. Survival or tumor size were measured and the results are expressed as the measurement made in the treated group (T) divided by the measurement made in the vehicle treated control group (C). The tumor model used in this assay is L1210 Leukemia resistant to Methotrexate; NSC 740 (intraperitoneal) in B6D2F1 (BDF1) mice

[1] = dose: 3.0 mg/kg/injection, schedule: Q01DX Z (ip), vehicle: carboxymethylcellulose (CMC)
[2] = dose: 6.0 mg/kg/injection, schedule: Q01DX Z (ip), vehicle: carboxymethylcellulose (CMC)
[3] = dose: 9.0 mg/kg/injection, schedule: Q01DX Z (ip), vehicle: carboxymethylcellulose (CMC)
[4] = dose: 36.0 mg/kg/injection, schedule: Q01DX Z (ip), vehicle: carboxymethylcellulose (CMC)
[5] = dose: 12.5 mg/kg/injection, schedule: Q01DX Z (ip), vehicle: saline
[6] = dose: 20.0 mg/kg/injection, schedule: Q01DX010 (ip), vehicle: saline
[7] = dose: 12.5 mg/kg/injection, schedule: Q01DX010 (ip), vehicle: saline

Q: How did the T/C (dose: 1.2 mg/kg/injection, schedule: Q01DX Z (ip), vehicle: carboxymethylcellulose (CMC)) turn out when `S=c1nc[nH]c2nc[nH]c12` was run?
A: 118 % of control

Q: What about the T/C (dose: 2.4 mg/kg/injection, schedule: Q01DX Z (ip), vehicle: carboxymethylcellulose (CMC)) of the same compound?
A: 91 % of control

Q: What about the T/C [1] of the same compound?
A: 95 % of control

Q: And the T/C (dose: 5.0 mg/kg/injection, schedule: Q01DX010 (ip), vehicle: alkali diluted with saline)?
A: 100 % of control

Q: And the T/C (dose: 5.0 mg/kg/injection, schedule: Q01DX Z (ip), vehicle: alkali diluted with saline)?
A: 120 % of control and 91 % of control and 102 % of control

Q: And the T/C [2]?
A: 111 % of control

Q: And the T/C [3]?
A: 95 % of control

Q: What about the T/C (dose: 10.0 mg/kg/injection, schedule: Q01DX010 (ip), vehicle: alkali diluted with saline) of the same compound?
A: 99 % of control

Q: What about the T/C (dose: 10.0 mg/kg/injection, schedule: Q01DX Z (ip), vehicle: alkali diluted with saline) of the same compound?
A: 94 % of control and 110 % of control

Q: And the T/C (dose: 12.0 mg/kg/injection, schedule: Q01DX Z (ip), vehicle: carboxymethylcellulose (CMC))?
A: 98 % of control

Q: And the T/C (dose: 20.0 mg/kg/injection, schedule: Q01DX010 (ip), vehicle: alkali diluted with saline)?
A: 101 % of control

Q: And the T/C (dose: 20.0 mg/kg/injection, schedule: Q01DX Z (ip), vehicle: alkali diluted with saline)?
A: 117 % of control and 91 % of control and 102 % of control

Q: And the T/C (dose: 25.0 mg/kg/injection, schedule: Q01DX Z (ip), vehicle: other)?
A: 93 % of control and 103 % of control

Q: And the T/C [4]?
A: 102 % of control

Q: And the T/C (dose: 40.0 mg/kg/injection, schedule: Q01DX010 (ip), vehicle: alkali diluted with saline)?
A: 104 % of control

Q: What about the T/C (dose: 80.0 mg/kg/injection, schedule: Q01DX010 (ip), vehicle: alkali diluted with saline) of the same compound?
A: 95 % of control

Q: And the T/C (dose: 100.0 mg/kg/injection, schedule: Q01DX Z (ip), vehicle: other)?
A: 123 % of control and 98 % of control

Q: What does the source list for `CC(=O)N(C)C`?
A: T/C (dose: 62.5 mg/kg/injection, schedule: Q01DX010 (ip), vehicle: saline): 90 % of control and 98 % of control; T/C (dose: 62.5 mg/kg/injection, schedule: Q01DX Z (ip), vehicle: saline): 106 % of control; T/C (dose: 125.0 mg/kg/injection, schedule: Q01DX010 (ip), vehicle: saline): 102 % of control; T/C (dose: 125.0 mg/kg/injection, schedule: Q01DX Z (ip), vehicle: saline): 122 % of control; T/C (dose: 250.0 mg/kg/injection, schedule: Q01DX010 (ip), vehicle: saline): 93 % of control and 100 % of control; T/C (dose: 500.0 mg/kg/injection, schedule: Q01DX010 (ip), vehicle: saline): 93 % of control; T/C (dose: 500.0 mg/kg/injection, schedule: Q01DX Z (ip), vehicle: saline): 114 % of control and 88 % of control; T/C (dose: 750.0 mg/kg/injection, schedule: Q01DX Z (ip), vehicle: saline): 88 % of control; T/C (dose: 1000.0 mg/kg/injection, schedule: Q01DX Z (ip), vehicle: methylcellulose (MC)): 87 % of control

Q: What does the source list for `C=CC(CN1CC1)OC(C)=O` (stereo not drawn)?
A: T/C (dose: 1.25 mg/kg/injection, schedule: Q01DX Z (ip), vehicle: saline): 119 % of control; T/C (dose: 2.0 mg/kg/injection, schedule: Q01DX010 (ip), vehicle: saline): 123 % of control; T/C (dose: 2.5 mg/kg/injection, schedule: Q01DX Z (ip), vehicle: saline): 107 % of control; T/C (dose: 5.0 mg/kg/injection, schedule: Q01DX Z (ip), vehicle: saline): 102 % of control

Q: `O=P1(N(CCCl)CCCl)NCCCO1` (stereo not drawn) was tested. Which T/C (dose: 11.3 mg/kg/injection, schedule: Q01DX010 (ip), vehicle: saline) did it give?
A: 100 % of control

Q: What about the T/C [5] of the same compound?
A: 98 % of control and 103 % of control

Q: What about the T/C (dose: 22.5 mg/kg/injection, schedule: Q01DX Z (ip), vehicle: saline) of the same compound?
A: 174 % of control

Q: What about the T/C (dose: 45.0 mg/kg/injection, schedule: Q01DX010 (ip), vehicle: saline) of the same compound?
A: 152 % of control

Q: And the T/C (dose: 90.0 mg/kg/injection, schedule: Q01DX010 (ip), vehicle: saline)?
A: 87 % of control

Q: What about the T/C (dose: 100.0 mg/kg/injection, schedule: Q01DX Z (ip), vehicle: saline) of the same compound?
A: 88 % of control and 109 % of control

Q: What about the T/C (dose: 200.0 mg/kg/injection, schedule: Q01DX Z (ip), vehicle: saline) of the same compound?
A: 88 % of control and 103 % of control

Q: With `CN(C)c1nc(N(C)C)nc(N(C)C)n1` as the compound, how does the T/C (dose: 0.5 mg/kg/injection, schedule: Q01DX Z (ip), vehicle: other) read?
A: 93 % of control

Q: What about the T/C (dose: 1.0 mg/kg/injection, schedule: Q01DX Z (ip), vehicle: other) of the same compound?
A: 103 % of control

Q: And the T/C (dose: 4.0 mg/kg/injection, schedule: Q01DX Z (ip), vehicle: other)?
A: 109 % of control

Q: And the T/C (dose: 18.8 mg/kg/injection, schedule: Q01DX010 (ip), vehicle: saline)?
A: 109 % of control

Q: What about the T/C (dose: 37.5 mg/kg/injection, schedule: Q01DX010 (ip), vehicle: saline) of the same compound?
A: 105 % of control

Q: What about the T/C (dose: 75.0 mg/kg/injection, schedule: Q01DX010 (ip), vehicle: saline) of the same compound?
A: 93 % of control

Q: And the T/C (dose: 87.5 mg/kg/injection, schedule: Q01DX Z (ip), vehicle: other)?
A: 101 % of control

Q: And the T/C (dose: 150.0 mg/kg/injection, schedule: Q01DX010 (ip), vehicle: saline)?
A: 104 % of control

Q: What about the T/C (dose: 175.0 mg/kg/injection, schedule: Q01DX Z (ip), vehicle: other) of the same compound?
A: 94 % of control

Q: Which results are given for `OCC1OC(n2cnc3c(=S)nc[nH]c32)C(O)C1O` (stereo not drawn)?
A: T/C [6]: 101 % of control and 102 % of control; T/C (dose: 40.0 mg/kg/injection, schedule: Q01DX010 (ip), vehicle: saline): 91 % of control and 101 % of control; T/C (dose: 80.0 mg/kg/injection, schedule: Q01DX010 (ip), vehicle: saline): 98 % of control; T/C (dose: 160.0 mg/kg/injection, schedule: Q01DX010 (ip), vehicle: saline): 88 % of control and 93 % of control

Q: How did the T/C [3] turn out when `CCc1nc(N)nc(N)c1-c1ccc(Cl)cc1` was run?
A: 92 % of control

Q: And the T/C (dose: 18.0 mg/kg/injection, schedule: Q01DX Z (ip), vehicle: carboxymethylcellulose (CMC))?
A: 96 % of control

Q: And the T/C [4]?
A: 95 % of control

Q: How did the T/C (dose: 3.13 mg/kg/injection, schedule: Q01DX010 (ip), vehicle: saline) turn out when `CCCNc1ncnc2[nH]ncc12` was run?
A: 90 % of control and 91 % of control

Q: And the T/C (dose: 6.25 mg/kg/injection, schedule: Q01DX010 (ip), vehicle: saline)?
A: 100 % of control and 102 % of control

Q: And the T/C [7]?
A: 86 % of control and 97 % of control

Q: For `CN(C)/N=N/c1nc[nH]c1C(N)=O`, which T/C [7] is on record?
A: 108 % of control

Q: And the T/C (dose: 25.0 mg/kg/injection, schedule: Q01DX010 (ip), vehicle: saline)?
A: 118 % of control

Q: And the T/C (dose: 50.0 mg/kg/injection, schedule: Q01DX010 (ip), vehicle: saline)?
A: 119 % of control

Q: What about the T/C (dose: 100.0 mg/kg/injection, schedule: Q01DX010 (ip), vehicle: saline) of the same compound?
A: 118 % of control

Q: `CSc1ncnc2c1ncn2C1OC(CO)C(O)C1O` (stereo not drawn) was tested. Which T/C (dose: 0.5 mg/kg/injection, schedule: Q01DX Z (ip), vehicle: saline) did it give?
A: 102 % of control

Q: And the T/C (dose: 1.0 mg/kg/injection, schedule: Q01DX Z (ip), vehicle: saline)?
A: 99 % of control

Q: And the T/C (dose: 2.0 mg/kg/injection, schedule: Q01DX Z (ip), vehicle: saline)?
A: 105 % of control

Q: And the T/C (dose: 4.0 mg/kg/injection, schedule: Q01DX Z (ip), vehicle: saline)?
A: 112 % of control

Q: And the T/C (dose: 6.25 mg/kg/injection, schedule: Q01DX Z (ip), vehicle: saline)?
A: 97 % of control

Q: And the T/C (dose: 10.0 mg/kg/injection, schedule: Q01DX010 (ip), vehicle: saline)?
A: 107 % of control

Q: And the T/C [7]?
A: 109 % of control

Q: What about the T/C [5] of the same compound?
A: 93 % of control

Q: What about the T/C (dose: 15.0 mg/kg/injection, schedule: Q01DX010 (ip), vehicle: saline) of the same compound?
A: 106 % of control

Q: And the T/C [6]?
A: 102 % of control

Q: With `S=P(N1CCCC1)(N1CC1)N1CC1` as the compound, how does the T/C (dose: 0.03 mg/kg/injection, schedule: Q01DX Z (ip), vehicle: methylcellulose (MC)) read?
A: 93 % of control

Q: And the T/C (dose: 0.05 mg/kg/injection, schedule: Q01DX Z (ip), vehicle: methylcellulose (MC))?
A: 91 % of control

Q: What about the T/C (dose: 0.1 mg/kg/injection, schedule: Q01DX Z (ip), vehicle: methylcellulose (MC)) of the same compound?
A: 99 % of control

Q: Which T/C (dose: 125.0 mg/kg/injection, schedule: Q01DX Z (ip), vehicle: methylcellulose (MC)) does the source give for `O=c1cnn(C2OC(CO)C(O)C2O)c(=O)[nH]1` (stereo not drawn) here?
A: 97 % of control

Q: What about the T/C (dose: 250.0 mg/kg/injection, schedule: Q01DX Z (ip), vehicle: methylcellulose (MC)) of the same compound?
A: 95 % of control

Q: And the T/C (dose: 500.0 mg/kg/injection, schedule: Q01DX Z (ip), vehicle: methylcellulose (MC))?
A: 104 % of control

Q: With `Nc1ncnc2[nH]ncc12` as the compound, how does the T/C (dose: 1.5 mg/kg/injection, schedule: Q01DX010 (ip), vehicle: saline) read?
A: 91 % of control and 107 % of control

Q: And the T/C (dose: 3.0 mg/kg/injection, schedule: Q01DX010 (ip), vehicle: saline)?
A: 96 % of control and 102 % of control

Q: What about the T/C (dose: 6.0 mg/kg/injection, schedule: Q01DX010 (ip), vehicle: saline) of the same compound?
A: 99 % of control and 103 % of control

Q: And the T/C (dose: 12.0 mg/kg/injection, schedule: Q01DX010 (ip), vehicle: saline)?
A: 89 % of control

Q: `CC(=O)Nc1ccc2nc3ccc(NC(C)=O)cc3[n+](-c3ccccc3)c2c1` was tested. Which T/C (dose: 2.0 mg/kg/injection, schedule: Q01DX Z (ip), vehicle: carboxymethylcellulose (CMC)) did it give?
A: 107 % of control

Q: And the T/C [1]?
A: 88 % of control

Q: And the T/C [2]?
A: 100 % of control
